Results reported in PubChem BioAssay AID1259407 (Chemical Carcinogenesis Research Information System (CCRIS), 2018).
Active and inactive are the calls of the source. The rule behind the calls is not given here.

Tested on: CCRIS mutagenicity, Ames/micronucleus/aberration tests
Assay: CCRIS mutagenicity studies
[1] = Test System: AMES SALMONELLA TYPHIMURIUM, Strain/Indicator: TA97, Metabolic Activation: NONE, Method: PREINCUBATION
[2] = Test System: AMES SALMONELLA TYPHIMURIUM, Strain/Indicator: TA98, Metabolic Activation: NONE, Method: PREINCUBATION
[3] = Test System: AMES SALMONELLA TYPHIMURIUM, Strain/Indicator: TA100, Metabolic Activation: NONE, Method: PREINCUBATION
[4] = Test System: AMES SALMONELLA TYPHIMURIUM, Strain/Indicator: TA1535, Metabolic Activation: NONE, Method: PREINCUBATION
[5] = Test System: AMES SALMONELLA TYPHIMURIUM, Strain/Indicator: TA1537, Metabolic Activation: HAMSTER, LIVER, S-9, AROCLOR 1254 (30%), Method: PREINCUBATION
[6] = Test System: AMES SALMONELLA TYPHIMURIUM, Strain/Indicator: TA1537, Metabolic Activation: NONE, Method: PREINCUBATION
[7] = Test System: AMES SALMONELLA TYPHIMURIUM, Strain/Indicator: TA1537, Metabolic Activation: RAT, LIVER, S-9, AROCLOR 1254 (30%), Method: PREINCUBATION

## CCCCCCCCCCCCCCCCC1CO1 (configuration not stated)
Test System: AMES SALMONELLA TYPHIMURIUM, Strain/Indicator: TA97, Metabolic Activation: HAMSTER, LIVER, S-9, AROCLOR 1254 (10%), Method: PREINCUBATION
  mutagenic call: inactive; negative
Test System: AMES SALMONELLA TYPHIMURIUM, Strain/Indicator: TA97, Metabolic Activation: HAMSTER, LIVER, S-9, AROCLOR 1254 (30%), Method: PREINCUBATION
  mutagenic call: inactive; negative
[1]
  mutagenic call: inactive; negative
Test System: AMES SALMONELLA TYPHIMURIUM, Strain/Indicator: TA97, Metabolic Activation: RAT, LIVER, S-9, AROCLOR 1254 (10%), Method: PREINCUBATION
  mutagenic call: inactive; negative
Test System: AMES SALMONELLA TYPHIMURIUM, Strain/Indicator: TA97, Metabolic Activation: RAT, LIVER, S-9, AROCLOR 1254 (30%), Method: PREINCUBATION
  mutagenic call: inactive; negative
Test System: AMES SALMONELLA TYPHIMURIUM, Strain/Indicator: TA98, Metabolic Activation: HAMSTER, LIVER, S-9, AROCLOR 1254 (10%), Method: PREINCUBATION
  mutagenic call: inactive; negative
Test System: AMES SALMONELLA TYPHIMURIUM, Strain/Indicator: TA98, Metabolic Activation: HAMSTER, LIVER, S-9, AROCLOR 1254 (30%), Method: PREINCUBATION
  mutagenic call: inactive; negative
[2]
  mutagenic call: inactive; negative
Test System: AMES SALMONELLA TYPHIMURIUM, Strain/Indicator: TA98, Metabolic Activation: RAT, LIVER, S-9, AROCLOR 1254 (10%), Method: PREINCUBATION
  mutagenic call: inactive; negative
Test System: AMES SALMONELLA TYPHIMURIUM, Strain/Indicator: TA98, Metabolic Activation: RAT, LIVER, S-9, AROCLOR 1254 (30%), Method: PREINCUBATION
  mutagenic call: inactive; negative
Test System: AMES SALMONELLA TYPHIMURIUM, Strain/Indicator: TA100, Metabolic Activation: HAMSTER, LIVER, S-9, AROCLOR 1254 (10%), Method: PREINCUBATION
  mutagenic call: inactive; negative
Test System: AMES SALMONELLA TYPHIMURIUM, Strain/Indicator: TA100, Metabolic Activation: HAMSTER, LIVER, S-9, AROCLOR 1254 (30%), Method: PREINCUBATION
  mutagenic call: inactive; negative
[3]
  mutagenic call: inactive; negative
Test System: AMES SALMONELLA TYPHIMURIUM, Strain/Indicator: TA100, Metabolic Activation: RAT, LIVER, S-9, AROCLOR 1254 (10%), Method: PREINCUBATION
  mutagenic call: inactive; negative
Test System: AMES SALMONELLA TYPHIMURIUM, Strain/Indicator: TA100, Metabolic Activation: RAT, LIVER, S-9, AROCLOR 1254 (30%), Method: PREINCUBATION
  mutagenic call: inactive; negative
Test System: AMES SALMONELLA TYPHIMURIUM, Strain/Indicator: TA1535, Metabolic Activation: HAMSTER, LIVER, S-9, AROCLOR 1254 (10%), Method: PREINCUBATION
  mutagenic call: inactive; negative
Test System: AMES SALMONELLA TYPHIMURIUM, Strain/Indicator: TA1535, Metabolic Activation: HAMSTER, LIVER, S-9, AROCLOR 1254 (30%), Method: PREINCUBATION
  mutagenic call: inactive; negative
[4]
  mutagenic call: inactive; negative
Test System: AMES SALMONELLA TYPHIMURIUM, Strain/Indicator: TA1535, Metabolic Activation: RAT, LIVER, S-9, AROCLOR 1254 (10%), Method: PREINCUBATION
  mutagenic call: inactive; negative
Test System: AMES SALMONELLA TYPHIMURIUM, Strain/Indicator: TA1535, Metabolic Activation: RAT, LIVER, S-9, AROCLOR 1254 (30%), Method: PREINCUBATION
  mutagenic call: inactive; negative
Test System: AMES SALMONELLA TYPHIMURIUM, Strain/Indicator: TA1537, Metabolic Activation: HAMSTER, LIVER, S-9, AROCLOR 1254 (10%), Method: PREINCUBATION
  mutagenic call: inactive; negative
[5]
  mutagenic call: inactive; negative
[6]
  mutagenic call: inactive; negative
Test System: AMES SALMONELLA TYPHIMURIUM, Strain/Indicator: TA1537, Metabolic Activation: RAT, LIVER, S-9, AROCLOR 1254 (10%), Method: PREINCUBATION
  mutagenic call: inactive; negative
[7]
  mutagenic call: inactive; negative

## N[C@@H](Cc1c[nH]c2ccccc12)C(=O)O
Test System: AMES SALMONELLA TYPHIMURIUM, Strain/Indicator: TA97, Metabolic Activation: HAMSTER, LIVER, S-9, AROCLOR 1254 (10 OR 30%), Method: PREINCUBATION
  mutagenic call: inactive; negative
[1]
  mutagenic call: inactive; negative
Test System: AMES SALMONELLA TYPHIMURIUM, Strain/Indicator: TA97, Metabolic Activation: RAT, LIVER, S-9, AROCLOR 1254 (10 OR 30%), Method: PREINCUBATION
  mutagenic call: inactive; negative
Test System: AMES SALMONELLA TYPHIMURIUM, Strain/Indicator: TA98, Metabolic Activation: HAMSTER, LIVER, S-9, AROCLOR 1254 (10 OR 30%), Method: PREINCUBATION
  mutagenic call: inactive; negative
[2]
  mutagenic call: inactive; negative
Test System: AMES SALMONELLA TYPHIMURIUM, Strain/Indicator: TA98, Metabolic Activation: RAT, LIVER, S-9, AROCLOR 1254 (10 OR 30%), Method: PREINCUBATION
  mutagenic call: inactive; negative
Test System: AMES SALMONELLA TYPHIMURIUM, Strain/Indicator: TA100, Metabolic Activation: HAMSTER, LIVER, S-9, AROCLOR 1254 (10 OR 30%), Method: PREINCUBATION
  mutagenic call: inactive; negative
[3]
  mutagenic call: inactive; negative
Test System: AMES SALMONELLA TYPHIMURIUM, Strain/Indicator: TA100, Metabolic Activation: RAT, LIVER, S-9, AROCLOR 1254 (10 OR 30%), Method: PREINCUBATION
  mutagenic call: inactive; negative
Test System: AMES SALMONELLA TYPHIMURIUM, Strain/Indicator: TA1535, Metabolic Activation: HAMSTER, LIVER, S-9, AROCLOR 1254 (10 OR 30%), Method: PREINCUBATION
  mutagenic call: inactive; negative
[4]
  mutagenic call: inactive; negative
Test System: AMES SALMONELLA TYPHIMURIUM, Strain/Indicator: TA1535, Metabolic Activation: RAT, LIVER, S-9, AROCLOR 1254 (10 OR 30%), Method: PREINCUBATION
  mutagenic call: inactive; negative
[5]
  mutagenic call: inactive; negative
[6]
  mutagenic call: inactive; negative
[7]
  mutagenic call: inactive; negative

## FC(F)(F)I
Test System: AMES SALMONELLA TYPHIMURIUM, Strain/Indicator: TA98, Metabolic Activation: NONE, Method: DESICCATOR
  mutagenic call: active; positive
Test System: AMES SALMONELLA TYPHIMURIUM, Strain/Indicator: TA98, Metabolic Activation: RAT, LIVER, S-9, AROCLOR 1254, Method: DESICCATOR
  mutagenic call: active; positive
Test System: AMES SALMONELLA TYPHIMURIUM, Strain/Indicator: TA100, Metabolic Activation: NONE, Method: DESICCATOR
  mutagenic call: active; positive
Test System: AMES SALMONELLA TYPHIMURIUM, Strain/Indicator: TA100, Metabolic Activation: RAT, LIVER, S-9, AROCLOR 1254, Method: DESICCATOR
  mutagenic call: active; positive
Test System: AMES SALMONELLA TYPHIMURIUM, Strain/Indicator: TA1535, Metabolic Activation: NONE, Method: DESICCATOR
  mutagenic call: active; positive
Test System: AMES SALMONELLA TYPHIMURIUM, Strain/Indicator: TA1535, Metabolic Activation: RAT, LIVER, S-9, AROCLOR 1254, Method: DESICCATOR
  mutagenic call: active; positive
Test System: AMES SALMONELLA TYPHIMURIUM, Strain/Indicator: TA1537, Metabolic Activation: NONE, Method: DESICCATOR
  mutagenic call: active; positive
Test System: AMES SALMONELLA TYPHIMURIUM, Strain/Indicator: TA1537, Metabolic Activation: RAT, LIVER, S-9, AROCLOR 1254, Method: DESICCATOR
  mutagenic call: active; positive
Test System: AMES SALMONELLA TYPHIMURIUM, Strain/Indicator: TA1538, Metabolic Activation: NONE, Method: DESICCATOR
  mutagenic call: inactive; negative
Test System: AMES SALMONELLA TYPHIMURIUM, Strain/Indicator: TA1538, Metabolic Activation: RAT, LIVER, S-9, AROCLOR 1254, Method: DESICCATOR
  mutagenic call: inactive; negative
Test System: MOUSE LYMPHOMA, Strain/Indicator: L5178Y (TK+/TK-), Metabolic Activation: NONE, Method: SUSPENSION/PLATE
  mutagenic call: inactive; negative
Test System: MOUSE LYMPHOMA, Strain/Indicator: L5178Y (TK+/TK-), Metabolic Activation: RAT, LIVER, S-9, AROCLOR 1254, Method: SUSPENSION/PLATE
  mutagenic call: inactive; negative
